Tests used:
[1] = target: SARS-CoV-2 3CL protease (Severe acute respiratory syndrome coronavirus 2, UniProt P0DTD1); experiment: biochemical; conditions: for IC50: 15 nM enzyme, 60 min at 23° C.; for Ki: fit to the Morrison equation
[2] = tested on: SARS-CoV-2; experiment: Antiviral activity in HeLa-ACE2 cells (viral protein detection); format: cell-based; conditions: Severe acute respiratory syndrome coronavirus 2, compound alone

Row | Compound | IC50 [1] | Ki [1] | EC90 [2]
1 | CC(C)(C)C[C@H](NC(=O)c1cc2ccccc2[nH]1)C(=O)N[C@@H](C[C@@H]1CCNC1=O)C(=O)CO [N-((1S)-1-{[((1S)-3-hydroxy-2-oxo-1-{[(3S)-2-oxopyrrolidin-3-yl]methyl}propyl)amino]carbonyl}-3,3-dimethylbutyl)-1H-indole-2-carboxamide] | 24 nM | 2.81 nM | 
2 | COc1cccc2[nH]c(C(=O)N[C@@H](Cc3ccccc3)C(=O)N[C@@H](C[C@@H]3CCNC3=O)C(=O)CO)cc12 [I, N-((S)-1-(((S)-4-hydroxy-3-oxo-1-((S)-2-oxopyrrolidin-3-yl)butan-2-yl)amino)-1-oxo-3-phenylpropan-2-yl)-4-methoxy-1H-indole-2-carboxamide] | 375 nM | 139 nM | 
3 | COc1cccc2[nH]c(C(=O)N[C@@H](CC(C)C)C(=O)N[C@@H](C[C@@H]3CCNC3=O)C(=O)COC(=O)C3CC3)cc12 [(3S)-3-({N-[(4-methoxy-1H-indol-2-yl)carbonyl]-L-leucyl}amino)-2-oxo-4-[(3S)-2-oxopyrrolidin-3-yl]butyl cyclopropanecarboxylate] | 128 nM | 42.7 nM | 
4 | CCC(CC)COC(=O)[C@H](C)N[P@](=O)(OC[C@H]1O[C@@](C#N)(c2ccc3c(N)ncnn23)[C@H](O)[C@@H]1O)Oc1ccccc1 [remdesivir, reference compound] |  |  | 168 nM
5 | CC(C)(C)C[C@H](NC(=O)[C@H]1CCCO1)C(=O)N[C@@H](C[C@@H]1CCNC1=O)C(=O)COC(=O)c1c(Cl)cccc1Cl [(3S)-3-({4-methyl-N-[(2R)-tetrahydrofuran-2-ylcarbonyl]-L-leucyl}amino)-2-oxo-4-[(3S)-2-oxopyrrolidin-3-yl]butyl 2,6-dichlorobenzoate] | 17 nM | 2.71 nM | 
6 | O=C(N[C@@H](CC1CC1)C(=O)N[C@@H](C[C@@H]1CCNC1=O)C(=O)c1nc2ccccc2s1)c1ccccn1 [H, N-((S)-1-(((S)-1-(benzo[d]thiazol-2-yl)-1-oxo-3-((S)-2-oxopyrrolidin-3-yl)propan-2-yl)amino)-3-cyclopropyl-1-oxopropan-2-yl)picolinamide] | 8400 nM | 3050 nM | 
